From US8834899B2, “Photodynamic therapy-generated mesothelioma vaccine” (The Trustees of the University of Pennsylvania, priority 2006, dated 2014)

Test system: AB1 murine mesothelioma cells
Test: Clonogenic assay after Photofrin PDT
Type: cell-based
Settings: for % Cell Kill / Clonogenic Results (colonies) / Clonogenic Results, Averaged numbers: Photofrin 24 hours
Description: Initial tests were conducted in order to explore the possibility of generating inactivated whole tumor cells from PDT. Three variables were manipulated: Photofrin® incubation time, Photofrin® dosage, and light dosage. Since Photofrin® incubation times may determine cellular uptake—either just within the membrane or further into the cytoplasm—the cells were incubated for either 3-hours or 24-hours, followed by a 3-hour incubation in drug-free media. Second, cells were given a Photofrin dose of either 10 μg/mL or 25 μg/mL. Dosages were determined by consulting both past papers and another PDT research laboratory. Lastly, light dosage was varied. The light source was a Laserscope KTP/YAG laser with a 630 nm Dye Module. […] Laser light dosage was measured in fluence or j/cm^2. Light dosages ranged from 0.125 j/cm^2 to 1.0 j/cm^2.
Later in the study, dose-response curves followed by clonogenic assays, were performed in order to determine appropriate PDT light dosages for complete cell killing. In these tests, cells were incubated for 24-hours and exposed to high light dosages ranging from 1.0 j/cm^2 to 3.0 j/cm^2. The clonogenic assay measured cell plating efficiency and proliferation and involved plating cells at very low concentrations. After one week, resultant colonies that had formed were counted and compared against controls that had not been lit.
All three factors were modified with the intent of producing complete cell death. Cells were incubated in 25 μg/mL of Photofrin® for 3 hours and lit with 2.0 j/cm^2 of light at 630 nm. […] A clonogenic assay was performed to explore the dose-response relationship at this level of light, and the results are summarized in Table 2. For the assay, cells were incubated in 25 μg/mL of Photofrin® for 24 hours and lit with 1.0 to 3.0 j/cm^2 of light. […] After this test, PDT vaccines were generated by incubating cells in 25 μg/mL of Photofrin® for 24 hours and lit with 3.0 j/cm^2 of light.

[1] = 250 cells per plate, 1.5 j/cm^2
[2] = 500 cells per plate, 1.0 j/cm^2
[3] = 500 cells per plate, 1.5 j/cm^2
[4] = 500 cells per plate, 2.0 j/cm^2
[5] = 500 cells per plate, 2.0 j/cm^2 (100 mill), lit at high cell concentration
[6] = 500 cells per plate, 2.5 j/cm^2
[7] = 500 cells per plate, 3.0 j/cm^2
[8] = 500 cells per plate, 3.0 j/cm^2 (100 mill), lit at high cell concentration
[9] = 1000 cells per plate, 1.0 j/cm^2
[10] = 1000 cells per plate, 1.5 j/cm^2
[11] = 1000 cells per plate, 2.0 j/cm^2
[12] = 1000 cells per plate, 2.0 j/cm^2 (100 mill), lit at high cell concentration
[13] = 1000 cells per plate, 2.5 j/cm^2
[14] = 1000 cells per plate, 3.0 j/cm^2
[15] = 1000 cells per plate, 3.0 j/cm^2 (100 mill), lit at high cell concentration

Substance: Photofrin
- cell kill in clonogenic assay (in words) (25 μg/mL Photofrin 24 hours, all conditions, light 1.0 to 3.0 j/cm^2 at 630 nm): nearly complete cell kill in all conditions
- % Cell Kill [1]: 100%
- Clonogenic Results (colonies) [1]: 0
- Clonogenic Results, Averaged numbers [1]: 0.00
- % Cell Kill [2]: 100%
- Clonogenic Results (colonies) [2]: 0
- Clonogenic Results, Averaged numbers [2]: 0.00
- % Cell Kill [3]: 100%
- Clonogenic Results (colonies) [3]: 0
- Clonogenic Results, Averaged numbers [3]: 0.00
- % Cell Kill [4]: 100%
- Clonogenic Results (colonies) [4]: 0
- Clonogenic Results, Averaged numbers [4]: 0.00
- % Cell Kill [5]: 100%
- Clonogenic Results (colonies) [5]: 0
- Clonogenic Results, Averaged numbers [5]: 0
- % Cell Kill [6]: 100%
- Clonogenic Results (colonies) [6]: 0
- Clonogenic Results, Averaged numbers [6]: 0
- % Cell Kill [7]: 100%
- Clonogenic Results (colonies) [7]: 0
- Clonogenic Results, Averaged numbers [7]: 0
- % Cell Kill [8]: 99.67%
- Clonogenic Results, Averaged numbers [8]: 0.33
- % Cell Kill [9]: 99.85%
- Clonogenic Results, Averaged numbers [9]: 0.33
- % Cell Kill [10]: 100.00%
- Clonogenic Results (colonies) [10]: 0
- Clonogenic Results, Averaged numbers [10]: 0.00
- % Cell Kill [11]: 99.85%
- Clonogenic Results, Averaged numbers [11]: 0.33
- % Cell Kill [12]: 100%
- Clonogenic Results (colonies) [12]: 0
- Clonogenic Results, Averaged numbers [12]: 0
- % Cell Kill [13]: 100%
- Clonogenic Results (colonies) [13]: 0
- Clonogenic Results, Averaged numbers [13]: 0
- % Cell Kill [14]: 100%
- Clonogenic Results (colonies) [14]: 0
- Clonogenic Results, Averaged numbers [14]: 0
- % Cell Kill [15]: 99.70%
- Clonogenic Results, Averaged numbers [15]: 0.67
